Reference: the NIST ThermoML archive (doi:10.1016/j.tca.2013.09.032)

Details: 101.33 kPa, Crystal, Vacuum adiabatic calorimetry

Cc1cc2nc3c(=O)[nH]c(=O)nc-3n(C[C@H](O)[C@H](O)[C@H](O)CO)c2cc1C [riboflavin]
Details	molar entropy [J/K/mol]
1 K	0.0261
2 K	0.105
3 K	0.235
4 K	0.418
5 K	0.653
6 K	0.941
7 K	1.28
8 K	1.66
9 K	2.1
10 K	2.58
15 K	5.898
20 K	10.48
25 K	15.97
30 K	22.23
35 K	29.06
40 K	36.3
45 K	43.84
50 K	51.59
60 K	67.55
70 K	83.87
80 K	100.3
90 K	116.8
100 K	133.4
110 K	149.9
120 K	166.2
130 K	182.4
140 K	198.4
150 K	214.3
160 K	230.1
170 K	245.7
180 K	261.3
190 K	276.8
200 K	292.2
210 K	307.5
220 K	322.7
230 K	337.9
240 K	353
250 K	368
260 K	383
270 K	397.9
273.15 K	402.6
280 K	412.8
290 K	427.7
298.15 K	439.8
310 K	457.3
320 K	472.1
322 K	475
